Experimental data from ChEMBL document CHEMBL1201862, “PubChem BioAssay data set” (2004).
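96-well plates; 48 h exposure; 5 concentrations. Endpoints by linear interpolation between flanking doses. Not reached: highest tested concentration assigned. Abbreviation: GI50, concentration required for 50% inhibition of growth.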 Activity calls are given as the source filed them. No stated cut-off is given here; in the data, active = GI50 up to about 1.1 µM and inactive = higher.

Tests used:
Assay in all cases: NCI tumour cell line growth inhibition, 48 h
[1] = tested on: 786-0
[2] = tested on: A549
[3] = tested on: CCRF-CEM
[4] = tested on: COLO 205
[5] = tested on: DLD-1
[6] = tested on: DMS-114
[7] = tested on: DMS-273
[8] = tested on: EKVX
[9] = tested on: HCC 2998
[10] = tested on: HCT-116
[11] = tested on: HL-60
[12] = tested on: HOP-62
[13] = tested on: HOP-92
[14] = tested on: HT-29
[15] = tested on: IGROV-1
[16] = tested on: K562
[17] = tested on: KM-20L2
[18] = tested on: KM12
[19] = tested on: LOX IMVI
[20] = tested on: LXFL 529
[21] = tested on: M14
[22] = tested on: MOLT-4
[23] = tested on: Malme-3M
[24] = tested on: NCI-H226
[25] = tested on: NCI-H23
[26] = tested on: NCI-H460
[27] = tested on: NCI-H522
[28] = tested on: OVCAR-3
[29] = tested on: OVCAR-5
[30] = tested on: OVCAR-8
[31] = tested on: RPMI-8226
[32] = tested on: RXF 393
[33] = tested on: SF-268
[34] = tested on: SF-295
[35] = tested on: SF-539
[36] = tested on: SK-MEL-28
[37] = tested on: SK-MEL-2
[38] = tested on: SK-MEL-5
[39] = tested on: SK-OV-3
[40] = tested on: SNB-75
[41] = tested on: SNB-78
[42] = tested on: SW-620
[43] = tested on: TK-10
[44] = tested on: U-251
[45] = tested on: UACC-257
[46] = tested on: UACC-62
[47] = tested on: UO-31
[48] = tested on: XF498
[49] = tested on: A498
[50] = tested on: CAKI-1
[51] = tested on: HCT-15
[52] = tested on: HOP-18
[53] = tested on: M19-MEL
[54] = tested on: MCF7
[55] = tested on: NCI/ADR-RES
[56] = tested on: OVCAR-4
[57] = tested on: SN12C
[58] = tested on: SNB-19
[59] = tested on: ACHN
[60] = tested on: SR

## CCN(CC)C(=O)C/C(C)=N/NC(=O)c1ccncc1
[1]
  GI50: > 100 µM (inactive)
[2]
  GI50: > 100 µM (inactive)
[3]
  GI50: > 100 µM (inactive)
[4]
  GI50: > 100 µM (inactive)
[5]
  GI50: > 100 µM (inactive)
[6]
  GI50: > 100 µM (inactive)
[7]
  GI50: > 100 µM (inactive)
[8]
  GI50: > 100 µM (inactive)
[9]
  GI50: > 100 µM (inactive)
[10]
  GI50: > 100 µM (inactive)
[11]
  GI50: > 100 µM (inactive)
[12]
  GI50: > 100 µM (inactive)
[13]
  GI50: > 100 µM (inactive)
[14]
  GI50: > 100 µM (inactive)
[15]
  GI50: > 100 µM (inactive)
[16]
  GI50: > 100 µM (inactive)
[17]
  GI50: > 100 µM (inactive)
[18]
  GI50: > 100 µM (inactive)
[19]
  GI50: > 100 µM (inactive)
[20]
  GI50: > 100 µM (inactive)
[21]
  GI50: > 100 µM (inactive)
[22]
  GI50: > 100 µM (inactive)
[23]
  GI50: > 100 µM (inactive)
[24]
  GI50: > 100 µM (inactive)
[25]
  GI50: > 100 µM (inactive)
[26]
  GI50: > 100 µM (inactive)
[27]
  GI50: > 100 µM (inactive)
[28]
  GI50: > 100 µM (inactive)
[29]
  GI50: > 100 µM (inactive)
[30]
  GI50: > 100 µM (inactive)
[31]
  GI50: > 100 µM (inactive)
[32]
  GI50: > 100 µM (inactive)
[33]
  GI50: > 100 µM (inactive)
[34]
  GI50: > 100 µM (inactive)
[35]
  GI50: > 100 µM (inactive)
[36]
  GI50: > 100 µM (inactive)
[37]
  GI50: > 100 µM (inactive)
[38]
  GI50: > 100 µM (inactive)
[39]
  GI50: > 100 µM (inactive)
[40]
  GI50: > 100 µM (inactive)
[41]
  GI50: > 100 µM (inactive)
[42]
  GI50: > 100 µM (inactive)
[43]
  GI50: > 100 µM (inactive)
[44]
  GI50: > 100 µM (inactive)
[45]
  GI50: > 100 µM (inactive)
[46]
  GI50: > 100 µM (inactive)
[47]
  GI50: > 100 µM (inactive)
[48]
  GI50: > 100 µM (inactive)

## O=P1(Oc2ccc(Cl)cc2Cl)Oc2ccc3ccccc3c2-c2c(ccc3ccccc23)O1
[49]
  GI50: 24.8 µM (inactive)
[2]
  GI50: 49 µM (inactive)
[50]
  GI50: 21 µM (inactive)
[3]
  GI50: 28 µM (inactive)
[4]
  GI50: 46.5 µM (inactive)
[5]
  GI50: 32.1 µM (inactive)
[7]
  GI50: 41.3 µM (inactive)
[8]
  GI50: 25.4 µM (inactive)
[9]
  GI50: 24.9 µM (inactive)
[10]
  GI50: 26.5 µM (inactive)
[51]
  GI50: 26.5 µM
[11]
  GI50: 22.9 µM (inactive)
[52]
  GI50: 61.5 µM (inactive)
[12]
  GI50: 20.2 µM (inactive)
[13]
  GI50: 22.4 µM (inactive)
[14]
  GI50: 42.1 µM (inactive)
[15]
  GI50: 26.9 µM (inactive)
[16]
  GI50: 31.4 µM (inactive)
[17]
  GI50: 33.5 µM (inactive)
[18]
  GI50: 32.9 µM (inactive)
[19]
  GI50: 24 µM (inactive)
[53]
  GI50: 19.9 µM (inactive)
[54]
  GI50: 33.7 µM (inactive)
[22]
  GI50: 19.9 µM (inactive)
[23]
  GI50: 21.9 µM (inactive)
[24]
  GI50: 23.3 µM (inactive)
[25]
  GI50: 29.8 µM (inactive)
[26]
  GI50: 32.4 µM (inactive)
[27]
  GI50: 19.5 µM (inactive)
[55]
  GI50: > 68.5 µM (inactive)
[28]
  GI50: 22.5 µM (inactive)
[56]
  GI50: 27.9 µM (inactive)
[29]
  GI50: 59.7 µM (inactive)
[30]
  GI50: 40.1 µM (inactive)
[31]
  GI50: 18.2 µM (inactive)
[32]
  GI50: 16 µM (inactive)
[33]
  GI50: 34.7 µM (inactive)
[34]
  GI50: 34.8 µM (inactive)
[35]
  GI50: 21.6 µM (inactive)
[36]
  GI50: 32.5 µM (inactive)
[37]
  GI50: 18.7 µM (inactive)
[38]
  GI50: 49.5 µM (inactive)
[39]
  GI50: 59.7 µM (inactive)
[57]
  GI50: 30.8 µM (inactive)
[58]
  GI50: 29.5 µM (inactive)
[40]
  GI50: 31.5 µM (inactive)
[41]
  GI50: 32.4 µM (inactive)
[42]
  GI50: 32.4 µM (inactive)
[44]
  GI50: 21.1 µM (inactive)
[45]
  GI50: 59 µM (inactive)
[46]
  GI50: 26.7 µM (inactive)
[47]
  GI50: 20.4 µM (inactive)
[48]
  GI50: 24.5 µM (inactive)

## NC(CO)c1ccccc1 (configuration not stated)
[2]
  GI50: > 100 µM (inactive)
[59]
  GI50: > 100 µM (inactive)
[50]
  GI50: > 100 µM (inactive)
[3]
  GI50: 8.71 µM (inactive)
[5]
  GI50: > 100 µM (inactive)
[6]
  GI50: > 100 µM (inactive)
[7]
  GI50: > 100 µM (inactive)
[8]
  GI50: > 100 µM (inactive)
[9]
  GI50: > 100 µM (inactive)
[10]
  GI50: > 100 µM (inactive)
[51]
  GI50: > 100 µM
[11]
  GI50: > 100 µM (inactive)
[52]
  GI50: 24.7 µM (inactive)
[12]
  GI50: > 100 µM (inactive)
[13]
  GI50: > 100 µM (inactive)
[14]
  GI50: > 100 µM (inactive)
[15]
  GI50: > 100 µM (inactive)
[17]
  GI50: > 100 µM (inactive)
[18]
  GI50: > 100 µM (inactive)
[19]
  GI50: > 100 µM (inactive)
[20]
  GI50: > 100 µM (inactive)
[21]
  GI50: > 100 µM (inactive)
[22]
  GI50: > 100 µM (inactive)
[23]
  GI50: > 100 µM (inactive)
[24]
  GI50: > 100 µM (inactive)
[25]
  GI50: > 10 µM (inactive)
[26]
  GI50: > 100 µM (inactive)
[27]
  GI50: > 100 µM (inactive)
[28]
  GI50: > 100 µM (inactive)
[56]
  GI50: > 100 µM (inactive)
[29]
  GI50: > 100 µM (inactive)
[30]
  GI50: > 100 µM (inactive)
[32]
  GI50: > 100 µM (inactive)
[33]
  GI50: > 100 µM (inactive)
[34]
  GI50: > 100 µM (inactive)
[35]
  GI50: > 100 µM (inactive)
[36]
  GI50: > 100 µM (inactive)
[37]
  GI50: > 100 µM (inactive)
[38]
  GI50: > 100 µM (inactive)
[39]
  GI50: > 100 µM (inactive)
[58]
  GI50: > 100 µM (inactive)
[40]
  GI50: > 100 µM (inactive)
[41]
  GI50: > 100 µM (inactive)
[60]
  GI50: > 100 µM (inactive)
[42]
  GI50: > 100 µM (inactive)
[43]
  GI50: > 100 µM (inactive)
[44]
  GI50: > 100 µM (inactive)
[45]
  GI50: > 100 µM (inactive)
[46]
  GI50: > 100 µM (inactive)
[47]
  GI50: > 100 µM (inactive)
[48]
  GI50: > 100 µM (inactive)
